Measurements reported in PubChem BioAssay (NCI).
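Five concentrations, 48 hours, 96-well plates. At the GI50, growth is halved. Definition used: TGI = concentration required for complete inhibition of growth.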

How the values were obtained:
Test in all cases: NCI anticancer screen, dose series, 48 h
[1] = test system: SF-268 CNS
[2] = test system: UACC-257 melanoma
[3] = test system: KM12 colon
[4] = test system: MCF7 breast
[5] = test system: LOX IMVI melanoma
[6] = test system: 786-0 renal
[7] = test system: SNB-19 CNS
[8] = test system: OVCAR-3 ovarian
[9] = test system: HCT-116 colon
[10] = test system: NCI-H522 lung
[11] = test system: ACHN renal
[12] = test system: HOP-92 NSCLC

Row | SMILES | TGI [1] [µM] | TGI [2] [µM] | TGI [3] [µM] | TGI [4] [µM] | TGI [5] [µM] | TGI [6] [µM] | TGI [7] [µM] | TGI [8] [µM] | TGI [9] [µM] | TGI [10] [µM] | TGI [11] [µM] | TGI [12] [µM] | GI50 [9] [µM]
1 | CC1CN=C(NS(=O)(=O)c2cc(C(=O)Nc3ccc(Cl)cc3)c(Cl)cc2S)NN1 (stereo not drawn) | 52.1 | > 100 | 97.1 | > 100 | > 100 | > 100 | > 100 | > 100 | > 100 | 64.1 | > 100 |  | 
2 | COC(=O)c1c(C(=O)OC)c2ccccn2c1-c1cc(OC)c(Br)c(=O)o1 | > 100 | > 100 | > 100 |  | > 100 | > 100 | > 100 | > 100 | > 100 | > 100 | > 100 |  | 
3 | CC(C)C(=O)N1Cc2cc(Cl)cc(Cl)c2OC(=O)c2ccccc21 | 41.5 | 32.8 | > 100 |  | 59 | > 100 | > 100 | 60.8 | > 100 | 40.9 | 72.9 | 62.7 | 
4 | CC(=O)Nc1ccc2nc(-c3ccccn3)c(-c3ccccn3)nc2c1 | > 100 | > 100 | > 100 | > 100 | > 100 | > 100 | > 100 | > 100 |  | > 100 | > 100 | > 100 | 
5 | COc1ccc(C2=NN(c3ccccc3)C[N+](c3ccc(C)cc3)=N2)cc1 | > 100 | > 100 | > 10 |  | > 100 | > 100 | > 100 | 47.2 | > 100 | 26.5 | > 100 |  | 
6 | Nc1ccc2[nH]c(-c3cccc(C(F)(F)F)c3)cc(=O)c2c1 |  | > 100 | > 100 | > 100 | > 100 | > 100 | > 100 |  | > 100 | > 100 | > 100 | > 100 | 52
7 | COC(=O)c1cc(C(=O)OC)c(CC(=O)C(=O)NC2C3CC4CC(C3)CC2C4)nc1CC(=O)C(=O)NC1C2CC3CC(C2)CC1C3 (stereo not drawn) | > 100 | > 100 | > 100 |  | > 100 | > 100 | > 100 | > 100 | > 100 | > 100 | > 100 | > 100 | 
8 | COc1cc2c(c(OC)c1OC)-c1ccc(SC)c(=O)cc1C(CC(=O)Oc1cccc([N+](=O)[O-])c1)C2 (stereo not drawn) | > 27.2 | > 100 | 5.4 |  | > 32.1 | > 100 | > 100 | 0.94 | 3.72 | 5.81 | > 100 | > 100 | 
9 | CC(CCC[C@H](C)CO)[C@H]1[C@@H](O)C(O)C2[C@@H]3C[C@@H](O)C4(O)C[C@@H](O)CC[C@]4(C)C3CC[C@@]21C (stereo partly drawn) | > 100 | > 100 | > 100 |  | > 100 | > 100 | > 100 | > 100 | > 100 | > 100 | > 100 | > 100 | 
10 | Oc1ccc([C@H]2c3c(O)cc(O)cc3C3c4c(cc(O)cc4[C@@H]2[C@H]2c4cc(O)cc5c4C(c4cc(O)cc(O)c4[C@@H]2c2ccc(O)cc2)[C@@H](c2ccc(O)cc2)O5)O[C@@H]3c2ccc(O)cc2)cc1 (stereo partly drawn) | > 100 | > 100 | > 100 | > 100 | > 100 | > 100 | > 100 | > 100 | > 100 | > 100 | > 100 |  | 
